From US8575156B2, “Cyclic inhibitors of 11β-hydroxysteroid dehydrogenase 1” (Vitae Pharmaceuticals, Inc., priority 2007, dated 2013)
Where two headings read alike, the source gives them in different places.

Molecular target: 11β-HSD1 (Homo sapiens, UniProt P28845)
Assay: biochemical
Details: for IC50: IC50 Range, Biological Test Example 1, microsomes from CHO cells overexpressing human 11β-HSD1; for inhibition at 0.1111 µM: read-out: Average % inhibition at 111.1 nM, Biological Test Example 1, 111.1 nM compound
[1] = read-out: Average % inhibition at 100 nM, Biological Test Example 1, 100 nM

Sequence of 11β-HSD1 (P28845 whole entry): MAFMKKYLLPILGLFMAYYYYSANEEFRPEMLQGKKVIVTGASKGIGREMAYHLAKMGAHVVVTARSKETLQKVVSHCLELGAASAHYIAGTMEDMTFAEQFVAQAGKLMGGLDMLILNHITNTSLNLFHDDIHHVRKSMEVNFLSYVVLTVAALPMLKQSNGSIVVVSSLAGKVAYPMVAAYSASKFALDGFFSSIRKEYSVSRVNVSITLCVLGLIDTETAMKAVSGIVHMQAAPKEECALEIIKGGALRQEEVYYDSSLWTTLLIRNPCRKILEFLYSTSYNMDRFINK

SMILES | IC50 [µM] | inhibition at 0.1 µM [1] [%] | inhibition at 0.1111 µM [%] | inhibition at 0.1 µM (read-out: Average % inhibition at 100 nM, Biological Test Example 1, 100 nM compound) [%] | inhibition at 0.1 µM (read-out: Average % inhibition at 100 nM) [%]
CC(=O)NCC(C)(C)C[C@]1(c2ccc(F)cc2)CCN([C@@H](C)c2ccc(Br)cc2)C(=O)O1 [EXAMPLE 605, N-(3-((R)-3-((S)-1-(4-bromophenyl)ethyl)-6-(4-fluorophenyl)-2-oxo-1,3-oxazinan-6-yl)-2,2-dimethylpropyl)acetamide] | < 0.1 | 85.8 |  |  | 
C[C@@H](c1ccc(C(F)(F)F)cc1)N1CC[C@](CC(C)(C)O)(c2ccccc2)OC1=O [EXAMPLE 400, (S)-6-(2-hydroxy-2-methylpropyl)-6-phenyl-3-((S)-1-(4-(trifluoromethyl)phenyl)ethyl)-1,3-oxazinan-2-one] | < 0.1 | 96.8 |  |  | 
C[C@@H](c1cccc(Br)c1)N1CC[C@](CCCO)(c2ccc(F)cc2)OC1=O [EXAMPLE 354, (R)-3-((S)-1-(3-bromophenyl)ethyl)-6-(4-fluorophenyl)-6-(3-hydroxypropyl)-1,3-oxazinan-2-one] | < 0.1 | 95.2 |  |  | 
O=C1OC(CCCO)(c2ccc(F)cc2)CCN1Cc1c(F)cccc1Cl (stereo not drawn) [EXAMPLE 349, 3-(2-chloro-6-fluorobenzyl)-6-(4-fluorophenyl)-6-(3-hydroxypropyl)-1,3-oxazinan-2-one] | < 0.1 | 89.8 |  |  | 
CC[C@@H](c1ccc(Br)cc1)N1CC[C@](CCC(N)=O)(c2ccc(F)cc2)OC1=O [EXAMPLE 368, 3-((R)-3-((S)-1-(4-bromophenyl)propyl)-6-(4-fluorophenyl)-2-oxo-1,3-oxazinan-6-yl)propanamide] | < 0.1 | 96.9 |  |  | 
O=C1OC(CCO)(c2ccc(F)cc2)CCN1c1ccc(F)c(-c2ccc(F)cc2Cl)c1 (stereo not drawn) [EXAMPLE 100, 3-(2′-chloro-4′,6-difluorobiphenyl-3-yl)-6-(4-fluorophenyl)-6-(2-hydroxyethyl)-1,3-oxazinan-2-one] | < 0.1 |  | 93.7 |  | 
CC1(c2ccccc2)CCN(c2cccc(-c3cccc(CO)c3)c2)C(=O)O1 (stereo not drawn) [EXAMPLE 39, 3-(3′-(hydroxymethyl)biphenyl-3-yl)-6-methyl-6-phenyl-1,3-oxazinan-2-one] | 0.1 to 1 |  | 24.8 |  | 
CC(O)C[C@@]1(c2cccs2)CCN([C@@H](C)c2ccc(-c3ccc(F)cc3)cc2)C(=O)O1 (single isomer, unassigned) [EXAMPLE 167 Isomer 1] | < 0.1 |  | 79 | 73.7 | 
CC1(c2ccccc2)CCN(c2nccc(-c3cccc(Cl)c3)n2)C(=O)O1 (stereo not drawn) [EXAMPLE 58, 3-(4-(3-chlorophenyl)pyrimidin-2-yl)-6-methyl-6-phenyl-1,3-oxazinan-2-one] | 0.1 to 1 |  | 34.8 |  | 
C[C@@H](c1ccc(F)cc1)N1CC[C@](CC(C)(C)O)(c2ccc(F)cc2)OC1=O [EXAMPLE 407, (S)-6-(4-fluorophenyl)-3-((S)-1-(4-fluorophenyl)ethyl)-6-(2-hydroxy-2-methylpropyl)-1,3-oxazinan-2-one] | < 0.1 | 94.7 |  |  | 
C[C@@H](c1ccc(Br)cc1)N1CC[C@](CCC(C)(C)O)(c2ccc(F)cc2)OC1=O [EXAMPLE 373, (R)-3-((S)-1-(4-bromophenyl)ethyl)-6-(4-fluorophenyl)-6-(3-hydroxy-3-methylbutyl)-1,3-oxazinan-2-one] | < 0.1 | 89.1 |  |  | 
C[C@@H](c1ccc(CC(C)(C)O)cc1)N1CC[C@](CCCO)(c2ccccc2)OC1=O [EXAMPLE 312, (R)-3-((S)-1-(4-(2-hydroxy-2-methylpropyl)phenyl)ethyl)-6-(3-hydroxypropyl)-6-phenyl-1,3-oxazinan-2-one] | < 0.1 |  |  |  | 85.7
Cc1ccc([C@H](C)N2CC[C@](CC(C)(C)O)(c3ccc(F)cc3)OC2=O)cc1 [EXAMPLE 417, (S)-6-(4-fluorophenyl)-6-(2-hydroxy-2-methylpropyl)-3-((S)-1-p-tolylethyl)-1,3-oxazinan-2-one] | < 0.1 | 97.1 |  |  | 
